Laboratory results: patent publication US20140051762A1, “POLYCATIONIC COMPOUNDS AND USES THEREOF” (priority 2004, published 2014)
pEC50: −log10 of the molar value.

Key:
heparin = test: effect on coagulation time and heparin efficacy
Protocol: The following example illustrates the effect of a polycationic compound of the present invention on coagulation time. The anti-heparin assay as described herein was used. The assay contained either 1 mg/L, 2 mg/L or 4 mg/I of heparin and increasing amounts of Compound 26 was added.

[1] = test system: FGF2-induced angiogenesis in the CAM model; test: FGF2-induced angiogenesis in the chick chorioallantoic membrane (CAM) model; type: in vivo, chick embryo; conditions: Table 3; 1.0 ug + FGF2 (1 ug)
Protocol: The following example illustrates the anti-angiogenic effect of exemplary polycationic compounds of the present invention. Ten-day old embryos were purchased from Spafas, Inc. (Preston, Conn.) and were incubated at 37° C. with 55% relative humidity. In the dark with the help of a candling lamp, a small hole was punctured in the shell concealing the air sac with a hypodermic needle. A second hole was punctured in the shell on the broadside of the egg directly over an avascular portion of the embryonic membrane, as observed during candling. A false air sac was created beneath the second hole by the application of negative pressure to the first hole, which caused the chorioallantoic membrane (CAM) to separate from the shell. A window, approximately 1.0 cm^2, was cut in the shell over the dropped CAM with the use of a small crafts grinding wheel (Dremel, Division of Emerson Electric Company Racine, Wis.) which allowed direct access to the underlying CAM. Filter disks of #1 filter paper (Whatman International, United Kingdom) were soaked in 3 mg/mL cortisone acetate (Sigma, St. Louis, Mo.) in a solution of 95% ethanol and water and subsequently air dried under sterile conditions. FGF2 (Life Technologies, Gaithersburg, Md.) was used to grow vessels on the CAMs of 10 day old chick embryos. Sterile filter disks adsorbed with FGF2 dissolved in PBS at 1μg/mL were placed on growing CAMs. […] At 24 h, test compounds or control vehicle was added directly to CAM topically.
(§1) CAM tissue directly beneath FGF2-saturated filter disk was resected from embryos treated 48 hours prior with test compound or control. Tissues were washed three times with PBS. Sections were placed in a 35-mm petri dish (Nalgen Nunc, Rochester, N.Y.) and examined under a SV6 stereomicroscope (Karl Zeiss, Thornwood, N.Y.) at 50× magnification. Digital images of CAM sections adjacent to filters were collected using a 3-CCD color video camera system (Toshiba America, New York, N.Y.) and analyzed using Image-Pro Plus software (Media Cybernetics, Silver Spring, Md.). Table 4 contains the number of vessel branch points contained in a circular region equal to the area of a filter disk counted for each section.
as §1, with “48 h” for “48 hours”, “with” for “with test”, “dish (Nalge” for “dish (Nalgen”, “analyzed with the” for “analyzed using”, “Md.).” for “Md.). Table 4 contains the number of vessel branch points contained in a circular region equal to the area of a filter disk counted for each section.”

Factor Xa [2] = test: anti-heparin assay, % Factor Xa inhibition at single concentration (chromogenic substrate S-2765); type: biochemical; conditions: Single concentration (10 ug/ml)
Protocol: (§2) The following example illustrates the heparin antagonistic effects of polycationic compounds of the present invention. To determine the anti-heparin activity of the polycationic compounds an assay measuring the percent inhibition using a fixed concentration of polycationic compound or concentrations of polycationic compounds causing lysis of 50% of human red blood cells were conducted.
(§3) 10 IU of anti-thrombin was dissolved in 10 ml of buffer, resulting in a 1 IU/ml stock solution (250×) of the anti-thrombin. The 1 IU/ml (250×) stock solution of anti-thrombin and a 336 mM stock solution of NaCl were diluted into a total volume of 50 μl buffer so that the final anti-thrombin concentration was 0.004 IU/sample well and the NaCl was 150 mM/sample well. 1 μl of the compound to be tested, final concentration 10 μg/ml (corresponding to 0.5 logarithmic antagonist dilution) is added to the sample well. The samples are mixed and allowed to incubate at room temperature for 20 minutes. 50 μl of factor Xa dissolved in buffer is added to the sample well to a final concentration of 0.14 knat/well (2 μl of the 7.1 kna/1 ml stock solution to a final sample well buffer volume of 100 μl). The samples were mixed and further incubated at room temperature for 10 minutes. 10 μl of a 4 mM stock solution of the substrate S-2765 was added to each sample well for a final concentration of 0.4 mM in each sample well. The samples were mixed and hydrolyses of the chromogenic substrate Z-D-Arg-Gly-Arg-pNA (S-2765), thus liberating the chromophoric group pNA (p-nitroaniline), was monitored at 405 nm. The samples were mixed every 30 seconds to maintain a uniform mixture. ThermoLabsystems Multiskan Spectrum spectrophotometer was used to measure the absorbance spectrums. The increase in absorbance was proportional to the enzyme (factor Xa) activity. The % inhibition of factor Xa was determined using a standard curve.

human red blood cells = test: lysis of 50% of human red blood cells (HC50); type: cell-based
Protocol: as §2
(§4) Factor Xa Inhibition: EC50. To determine the concentration of polycationic compound that causes about 50% […], fixed heparin concentrations were used and different amounts of heparin antagonists were added.

Factor Xa [3] = test: Factor Xa inhibition EC50 (fixed heparin concentrations, different amounts of heparin antagonist); type: biochemical; conditions: read-out: FactorXa Inhibition: EC50
Protocol: as §2, §3, §4

[4] = Heparin 1 mg/L, Compound 26 1.25 mg/L
[5] = Heparin 1 mg/L, Compound 26 2 mg/L
[6] = Heparin 1 mg/L, Compound 26 2.5 mg/L
[7] = Heparin 1 mg/L, Compound 26 4 mg/L
[8] = Heparin 2 mg/L, Compound 26 2.5 mg/L
[9] = Heparin 2 mg/L, Compound 26 4 mg/L
[10] = Heparin 2 mg/L, Compound 26 5 mg/L
[11] = Heparin 2 mg/L, Compound 26 6 mg/L
[12] = Heparin 2 mg/L, Compound 26 10 mg/L
[13] = Heparin 4 mg/L, Compound 26 2.5 mg/L
[14] = Heparin 4 mg/L, Compound 26 4 mg/L
[15] = Heparin 4 mg/L, Compound 26 5 mg/L
[16] = Heparin 4 mg/L, Compound 26 6 mg/L
[17] = Heparin cell empty (4 mg/L from line above), Compound 26 10 mg/L

HC50 (human red blood cells): >2,000 μg/ml
pEC50 (Factor Xa [3]): 5.70
SMILES: N=C(N)NCCC[C@@H](N)C(=O)Nc1cccc(NC(=O)c2cc(C(=O)Nc3cccc(NC(=O)[C@H](N)CCCNC(=N)N)c3SCCN)c(OCCN)cc2OCCN)c1SCCN [Compound 26]
Coagulation Time (heparin; [4]): 42.8 s
Heparin Efficacy (heparin; [4]): 0.6506
Coagulation Time (heparin; [5]): 33.4 s
Heparin Efficacy (heparin; [5]): 0.2402
Coagulation Time (heparin; [6]): 31.3 s
Heparin Efficacy (heparin; [6]): 0.1485
Coagulation Time (heparin; [7]): 27.9 s
Heparin Efficacy (heparin; [7]): −1.67E−08
Coagulation Time (heparin; [8]): 40.2 s
Heparin Efficacy (heparin; [8]): 0.1108
Coagulation Time (heparin; [9]): 33.9 s
Heparin Efficacy (heparin; [9]): 0.03149
Coagulation Time (heparin; [10]): 31.9 s
Heparin Efficacy (heparin; [10]): 0.006297
Coagulation Time (heparin; [11]): 31.8 s
Heparin Efficacy (heparin; [11]): 0.005038
Coagulation Time (heparin; [12]): 34.4 s
Heparin Efficacy (heparin; [12]): 0.03778
Coagulation Time (heparin; [13]): 124.8 s
Heparin Efficacy (heparin; [13]): 0.513
Coagulation Time (heparin; [14]): 87.4 s
Heparin Efficacy (heparin; [14]): 0.3108
Coagulation Time (heparin; [15]): 55.8 s
Heparin Efficacy (heparin; [15]): 0.14
Coagulation Time (heparin; [16]): 35.4 s
Heparin Efficacy (heparin; [16]): 0.02973
Coagulation Time (heparin; [17]): 29.9 s
Heparin Efficacy (heparin; [17]): −2.06E−09
effect on coagulation time (in words) (heparin; varying concentrations of heparin): decreased the coagulation time
% inhibition ± SEM [1]: 55 ± 8%
Branch pts ± SEM [1]: 123 ± 7
% FactorXa Inhibition (Factor Xa [2]): 48.14%
